Test results published in ChEMBL document CHEMBL1800066 (J Med Chem, 2011).
pIC50, pKd: −log10 of the molar value. Converted amounts (≈) assume the structure as drawn. The source made the active and inactive calls. The rule behind the calls is not given here.

Experiments:
[1] = Antiproliferative activity against human GTL16 cells after 72 hrs; conditions: GTL 16, 72 h
[2] = Plasma clearance in rat at 2 mg/kg, iv and 5 mg/kg, po; format: ADME, organism-based
[3] = Volume of distribution at steady state in rat at 2 mg/kg, iv and 5 mg/kg, po; format: ADME, organism-based; conditions: in vivo, read-out: Vdss
[4] = Oral bioavailability in rat at 5 mg/kg; format: ADME, organism-based; conditions: in vivo
[5] = biological target: Voltage-gated inwardly rectifying potassium channel KCNH2 (Homo sapiens, UniProt Q12809); assay: Inhibition of Kv11.1 channel
[6] = AUC (0 to infinity) in mouse at 2 mg/kg, po; format: ADME, organism-based; design: time infinity, dose 2 mg/kg, route oral; conditions: plasma
[7] = AUC (0 to infinity) in rat at 2 mg/kg, iv; format: ADME, organism-based; design: time infinity, dose 2 mg/kg, route intravenous; conditions: plasma
Canis familiaris = assay: AUC (0 to infinity) in dog at 1 mg/kg, iv; format: ADME, organism-based, Canis lupus familiaris, Plasma; design: time infinity, dose 1 mg/kg, route intravenous; conditions: in vivo
[8] = AUC (0 to infinity) in monkey at 0.25 mg/kg, iv; format: ADME, organism-based, Macaca mulatta; design: time infinity, dose 0.25 mg/kg, route intravenous; conditions: rhesus monkey, plasma
[9] = Volume of distribution at steady state in mouse at 1 mg/kg, iv; format: ADME, organism-based; design: dose 1 mg/kg, route intravenous; conditions: in vivo, read-out: Vdss
[10] = Volume of distribution at steady state in dog at 1 mg/kg, iv; format: ADME, organism-based, Canis lupus familiaris; design: dose 1 mg/kg, route intravenous; conditions: in vivo, read-out: Vdss
[11] = Half life in dog at 1 mg/kg, iv; format: ADME, organism-based, Canis lupus familiaris; design: dose 1 mg/kg, route intravenous; conditions: in vivo
[12] = Half life in monkey at 0.25 mg/kg, iv; format: ADME, organism-based, Macaca mulatta; design: dose 0.25 mg/kg, route intravenous; conditions: rhesus monkey, in vivo
[13] = Cmax in mouse at 2 mg/kg, po; format: ADME, organism-based; design: dose 2 mg/kg, route oral; conditions: in vivo
[14] = Cmax in rat at 5 mg/kg, po; format: ADME, organism-based; design: dose 5 mg/kg, route oral; conditions: in vivo
[15] = Cmax in dog at 2 mg/kg, po; format: ADME, organism-based, Canis lupus familiaris; design: dose 2 mg/kg, route oral; conditions: in vivo
[16] = Tmax in rat at 5 mg/kg, po; format: ADME, organism-based; design: dose 5 mg/kg, route oral; conditions: in vivo
[17] = Tmax in dog at 2 mg/kg, po; format: ADME, organism-based, Canis lupus familiaris; design: dose 2 mg/kg, route oral; conditions: in vivo
[18] = Tmax in monkey at 0.5 mg/kg, po; format: ADME, organism-based, Macaca mulatta; design: dose 0.5 mg/kg, route oral; conditions: rhesus monkey, in vivo
[19] = Oral bioavailability in mouse at 2 mg/kg; format: ADME, organism-based; conditions: in vivo
Cytochrome P450 2C9 = Cytochrome P450 2C9 (Homo sapiens, UniProt P11712); assay: Inhibition of CYP2C9; format: ADME
[20] = Lipophilicity, log P of the compound; format: physicochemical; conditions: octanol/water
[21] = Solubility of the compound at pH 7.4; format: physicochemical; conditions: buffer
[22] = biological target: T1, Hepatocyte growth factor receptor (Homo sapiens, UniProt P08581); assay: Inhibition of recombinant human c-MET phosphorylation at C-terminal Y1365
[23] = biological target: T1, Hepatocyte growth factor receptor; assay: Inhibition of recombinant human c-MET phosphorylation at C-terminal Y1234
[24] = biological target: T1, Hepatocyte growth factor receptor; assay: Inhibition of recombinant human c-MET phosphorylation at C-terminal Y1235
[25] = biological target: T1, Hepatocyte growth factor receptor; assay: Inhibition of c-MET overexpressed in human GTL-16 cells assessed as phosphorylation at C-terminal Y1365 after 2 hrs by Western blot analysis; format: cell-based
[26] = biological target: T1, Hepatocyte growth factor receptor; assay: Inhibition of c-MET overexpressed in human GTL-16 cells assessed as phosphorylation at C-terminal Y1234 after 2 hrs by Western blot analysis; format: cell-based
[27] = biological target: T1, Hepatocyte growth factor receptor; assay: Inhibition of c-MET overexpressed in human GTL-16 cells assessed as phosphorylation at C-terminal Y1235 after 2 hrs by Western blot analysis; format: cell-based
[28] = biological target: T1, Hepatocyte growth factor receptor; assay: Binding affinity to human recombinant His6-tagged unphosphorylated c-Met cytosolic domain
[29] = biological target: Hepatocyte growth factor receptor (Homo sapiens, UniProt P08581, N1100Y)
[30] = biological target: Hepatocyte growth factor receptor (Homo sapiens, UniProt P08581, M1250T)
[31] = biological target: Macrophage-stimulating protein receptor (Homo sapiens, UniProt Q04912); assay: Inhibition of human Ron
[32] = biological target: Vascular endothelial growth factor receptor 1 (Homo sapiens, UniProt P17948); assay: Inhibition of human Flt1
[33] = biological target: Tyrosine-protein kinase Mer (Homo sapiens, UniProt Q12866); assay: Inhibition of human Mer
[34] = biological target: Fibroblast growth factor receptor 2 (Homo sapiens, UniProt P21802); assay: Inhibition of human FGFR2
[35] = biological target: High affinity nerve growth factor receptor (Homo sapiens, UniProt P04629); assay: Inhibition of human TrkA
[36] = biological target: Fibroblast growth factor receptor 3 (Homo sapiens, UniProt P22607); assay: Inhibition of human FGFR3
[37] = biological target: BDNF/NT-3 growth factors receptor (Homo sapiens, UniProt Q16620); assay: Inhibition of human TrkB
[38] = biological target: Fibroblast growth factor receptor 1 (Homo sapiens, UniProt P11362); assay: Inhibition of human FGFR1
[39] = biological target: Vascular endothelial growth factor receptor 3 (Homo sapiens, UniProt P35916); assay: Inhibition of human Flt4
[40] = biological target: Tyrosine-protein kinase JAK2 (Homo sapiens, UniProt O60674); assay: Inhibition of human JAK2
Aurora kinase A = Aurora kinase A (Homo sapiens, UniProt O14965); assay: Inhibition of human Aurora A
[41] = biological target: Platelet-derived growth factor receptor alpha (Homo sapiens, UniProt P16234); assay: Inhibition of human PDGFR-alpha
Mus musculus [42] = assay: Inhibition of c-Met phosphorylation at Y1349 in human GTL16 cells xenografted in po dosed CD1 nu/nu mouse measured 1 hr post dosing by Western blot analysis; conditions: CD1, GTL 16, 1 h
GTL 16 [43] = assay: Antitumor activity against human GTL16 cells xenografted in CD1 nu/nu mouse assessed as suppression of tumor growth at 10 to 100 mg/kg, po BID; format: functional, organism-based
GTL 16 [44] = assay: Antitumor activity against human GTL16 cells xenografted in CD1 nu/nu mouse assessed as suppression of tumor growth at 200 mg/kg, po QD; format: functional, organism-based; design: dose 200 mg/kg
Mus musculus [45] = assay: Toxicity in human GTL16 cells xenografted CD1 nu/nu mouse assessed as mortality at 10 to 100 mg/kg, po BID; format: organism-based; design: dose 10-100 mg/kg, route oral; conditions: in vivo
Mus musculus [46] = assay: Toxicity in human GTL16 cells xenografted CD1 nu/nu mouse assessed as mortality at 10 to 200 mg/kg, po qd; format: organism-based; design: dose 10-200 mg/kg, route oral; conditions: in vivo
Mus musculus [47] = assay: Toxicity in human GTL16 cells xenografted CD1 nu/nu mouse assessed as change in median body weight at 10 to 100 mg/kg, po BID; format: organism-based; design: dose 10-100 mg/kg, route oral; conditions: in vivo
Mus musculus [48] = assay: Toxicity in human GTL16 cells xenografted CD1 nu/nu mouse assessed as change in median body weight at 200 mg/kg, po QD; format: organism-based; design: dose 200 mg/kg, route oral; conditions: in vivo
Mus musculus [49] = assay: Inhibition of c-Met phosphorylation at Y1365 in human GTL16 cells xenografted in CD1 nu/nu mouse at 10 to 100 mg/kg, po BID measured after 4 hrs by immunostaining assay; format: functional, organism-based
Mus musculus [50] = assay: Inhibition of Akt phosphorylation at S473 in human GTL16 cells xenografted in CD1 nu/nu mouse at 10 to 100 mg/kg, po BID measured after 4 hrs by immunostaining assay; format: functional, organism-based
[51] = Inhibition of potassium channel IKr
[52] = biological target: T1, Hepatocyte growth factor receptor

CN(C[C@@H]1COCCO1)S(=O)(=O)Nc1ccc2ccc3ncc(-c4cnn(C)c4)cc3c(=O)c2c1 [MK-2461]
pIC50 [1]: 6.36 | clearance [2]: 9.1 mL/min/kg | Vd [3]: 0.4 L/kg | bioavailability [4]: 62% | pIC50 [5]: < 4.52 | AUC(0-inf) [6]: 0.6 µM·h | AUC(0-inf) [7]: 7.6 µM·h | AUC (Canis familiaris): 8.4 µM·h | AUC(0-inf) [8]: 1 µM·h | Vd [9]: 3.2 L/kg | Vd [10]: 1.1 L/kg | half-life [11]: 2.9 h | half-life [12]: 0.8 h | Cmax [13]: 410 nM | Cmax [14]: 4200 nM | Cmax [15]: 2500 nM | Tmax [16]: 0.7 h | Tmax [17]: 1.4 h | Tmax [18]: 3 h | bioavailability [19]: 75% | pIC50 (Cytochrome P450 2C9): 5.92 | logP [20]: 2.7 | solubility [21]: 3 µg/mL (≈ 6.05 µM) | pIC50 [22]: 7.59 | pIC50 [23]: 6.05 | pIC50 [24]: 6.05 | pIC50 [25]: 7.30 | pIC50 [26]: < 5.60 | pIC50 [27]: < 5.60 | pKd [28]: 7.60 | pIC50 [29]: 8.82 | pIC50 [30]: 9.40 | pIC50 [31]: 8.15 | pIC50 [32]: 8.00 | pIC50 [33]: 7.62 | pIC50 [34]: 7.41 | pIC50 [35]: 7.34 | pIC50 [36]: 7.30 | pIC50 [37]: 7.21 | pIC50 [38]: 7.19 | pIC50 [39]: 7.11 | pIC50 [40]: 6.64 | pIC50 (Aurora kinase A): 6.54 | pIC50 [41]: > 7.00 | pIC50 (Mus musculus [42]): 6.00 | Activity (GTL 16 [43]): Active | Activity (GTL 16 [44]): Active | Activity (Mus musculus [45]): Non-toxic | Activity (Mus musculus [46]): Non-toxic | Activity (Mus musculus [47]): Non-toxic | Activity (Mus musculus [48]): Non-toxic | inhibition (Mus musculus [49]): Active | inhibition (Mus musculus [50]): Active | pIC50 [51]: < 4.52 | pIC50 [52]: 8.70
